Each structure is given as a SMILES string. Like-named read-outs stand apart in the source and are kept apart here.

One assay addresses human TLR8 (Homo sapiens (Human), UniProt Q9NR97). Kind of assay: TLR8 inhibition reporter assay (HEK-Blue SEAP).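 Also: SEAP driven by IFN-β minimal promoter with five NF-κB and AP-1 sites, compounds tested 0.05 nM to 50 µM, 22 h incubation, inhibition relative to agonist plus DMSO wells.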 For orientation: In a reporter assay the amount or activity of a reporter protein is the signal.
The target in another assay is human TLR7 (Homo sapiens (Human), UniProt Q9NYK1). Put plainly: TLR7 inhibition reporter assay (HEK-Blue SEAP). The class given is cell-based. To be noted: HEK-Blue cells overexpressing human TLR7, gardiquimod 7.5 μM stimulation.
Chain of human TLR7 (Q9NYK1 27-1049): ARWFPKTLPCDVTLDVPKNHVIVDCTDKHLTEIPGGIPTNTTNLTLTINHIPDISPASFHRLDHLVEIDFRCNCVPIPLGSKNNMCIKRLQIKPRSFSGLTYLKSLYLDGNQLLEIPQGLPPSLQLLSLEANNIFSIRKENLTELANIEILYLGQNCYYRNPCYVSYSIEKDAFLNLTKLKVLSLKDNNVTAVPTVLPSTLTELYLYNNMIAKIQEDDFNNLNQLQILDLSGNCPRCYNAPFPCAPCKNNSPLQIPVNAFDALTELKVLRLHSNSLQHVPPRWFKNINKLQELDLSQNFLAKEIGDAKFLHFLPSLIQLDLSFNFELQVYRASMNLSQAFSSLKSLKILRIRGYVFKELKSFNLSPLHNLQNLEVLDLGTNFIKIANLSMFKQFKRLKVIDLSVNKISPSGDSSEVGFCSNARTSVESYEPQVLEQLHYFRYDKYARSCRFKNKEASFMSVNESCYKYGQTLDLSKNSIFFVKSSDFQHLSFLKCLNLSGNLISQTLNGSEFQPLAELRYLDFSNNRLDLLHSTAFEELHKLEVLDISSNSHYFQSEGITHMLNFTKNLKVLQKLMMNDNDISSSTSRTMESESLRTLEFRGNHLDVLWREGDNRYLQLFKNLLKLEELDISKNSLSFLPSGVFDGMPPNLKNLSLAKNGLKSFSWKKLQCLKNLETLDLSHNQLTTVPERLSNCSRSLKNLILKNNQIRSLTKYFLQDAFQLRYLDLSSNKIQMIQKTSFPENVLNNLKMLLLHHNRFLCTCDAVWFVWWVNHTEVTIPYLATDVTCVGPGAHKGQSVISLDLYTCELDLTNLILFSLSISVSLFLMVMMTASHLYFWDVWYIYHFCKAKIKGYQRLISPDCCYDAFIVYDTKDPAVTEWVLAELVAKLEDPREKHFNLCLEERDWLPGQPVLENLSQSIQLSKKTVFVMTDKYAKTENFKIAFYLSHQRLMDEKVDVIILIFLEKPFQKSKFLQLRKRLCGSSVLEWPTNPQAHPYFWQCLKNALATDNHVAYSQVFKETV
A further assay concerns the target human TLR9 (Homo sapiens (Human), UniProt Q9NR96). Kind of assay: TLR9 inhibition reporter assay (HEK-Blue SEAP).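 Also: SEAP driven by IFN-β minimal promoter carrying five NF-κB and AP-1 sites, 22 h at 37 °C, compounds 0.05 nM–50 µM, inhibition scaled between agonist-plus-DMSO and reference-inhibitor wells.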
Setting [1] is: read-out: TLR8 IC50; HEK-Blue cells overexpressing human TLR8, R848 15.9 μM stimulation, SEAP reporter.
Setting [2] is: read-out: TLR9 IC50; HEK-Blue cells overexpressing human TLR9, ODN2006 5 nM stimulation, SEAP reporter.
Where [3] appears, read: read-out: TLR8 IC50; HEK-Blue cells overexpressing human TLR8; R848 15.9 μM stimulation; SEAP reporter.
[4] abbreviates: read-out: TLR9 IC50; HEK-Blue cells overexpressing human TLR9; ODN2006 5 nM stimulation; SEAP reporter.

Chain of human TLR8 (Q9NR97 27-1041): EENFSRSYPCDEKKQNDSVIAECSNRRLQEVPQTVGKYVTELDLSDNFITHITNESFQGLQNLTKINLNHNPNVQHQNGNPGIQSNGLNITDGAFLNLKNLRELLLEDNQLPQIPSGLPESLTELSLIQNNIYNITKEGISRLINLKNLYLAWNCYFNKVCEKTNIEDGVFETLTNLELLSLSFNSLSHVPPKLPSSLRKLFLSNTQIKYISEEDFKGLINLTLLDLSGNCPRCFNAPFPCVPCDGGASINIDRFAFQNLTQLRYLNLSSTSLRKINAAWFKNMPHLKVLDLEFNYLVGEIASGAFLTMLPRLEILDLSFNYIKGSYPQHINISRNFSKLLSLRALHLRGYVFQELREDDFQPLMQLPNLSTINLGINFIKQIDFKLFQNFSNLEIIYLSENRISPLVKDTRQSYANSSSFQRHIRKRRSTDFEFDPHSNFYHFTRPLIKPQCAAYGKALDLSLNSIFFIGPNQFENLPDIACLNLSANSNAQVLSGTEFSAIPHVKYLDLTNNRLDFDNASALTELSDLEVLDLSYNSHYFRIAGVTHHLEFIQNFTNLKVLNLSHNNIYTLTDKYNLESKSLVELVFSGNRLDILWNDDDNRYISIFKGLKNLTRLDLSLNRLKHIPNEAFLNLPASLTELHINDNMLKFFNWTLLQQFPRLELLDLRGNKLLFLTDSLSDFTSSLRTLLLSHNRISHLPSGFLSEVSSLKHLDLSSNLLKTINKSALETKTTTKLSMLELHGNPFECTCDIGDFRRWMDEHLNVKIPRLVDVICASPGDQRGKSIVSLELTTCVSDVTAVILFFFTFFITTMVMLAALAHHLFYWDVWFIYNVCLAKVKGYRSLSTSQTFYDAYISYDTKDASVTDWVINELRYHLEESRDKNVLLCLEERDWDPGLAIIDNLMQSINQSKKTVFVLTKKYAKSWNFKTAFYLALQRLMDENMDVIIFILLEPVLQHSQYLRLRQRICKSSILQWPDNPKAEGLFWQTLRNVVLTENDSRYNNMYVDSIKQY
Chain of human TLR9 (Q9NR96 26-1032): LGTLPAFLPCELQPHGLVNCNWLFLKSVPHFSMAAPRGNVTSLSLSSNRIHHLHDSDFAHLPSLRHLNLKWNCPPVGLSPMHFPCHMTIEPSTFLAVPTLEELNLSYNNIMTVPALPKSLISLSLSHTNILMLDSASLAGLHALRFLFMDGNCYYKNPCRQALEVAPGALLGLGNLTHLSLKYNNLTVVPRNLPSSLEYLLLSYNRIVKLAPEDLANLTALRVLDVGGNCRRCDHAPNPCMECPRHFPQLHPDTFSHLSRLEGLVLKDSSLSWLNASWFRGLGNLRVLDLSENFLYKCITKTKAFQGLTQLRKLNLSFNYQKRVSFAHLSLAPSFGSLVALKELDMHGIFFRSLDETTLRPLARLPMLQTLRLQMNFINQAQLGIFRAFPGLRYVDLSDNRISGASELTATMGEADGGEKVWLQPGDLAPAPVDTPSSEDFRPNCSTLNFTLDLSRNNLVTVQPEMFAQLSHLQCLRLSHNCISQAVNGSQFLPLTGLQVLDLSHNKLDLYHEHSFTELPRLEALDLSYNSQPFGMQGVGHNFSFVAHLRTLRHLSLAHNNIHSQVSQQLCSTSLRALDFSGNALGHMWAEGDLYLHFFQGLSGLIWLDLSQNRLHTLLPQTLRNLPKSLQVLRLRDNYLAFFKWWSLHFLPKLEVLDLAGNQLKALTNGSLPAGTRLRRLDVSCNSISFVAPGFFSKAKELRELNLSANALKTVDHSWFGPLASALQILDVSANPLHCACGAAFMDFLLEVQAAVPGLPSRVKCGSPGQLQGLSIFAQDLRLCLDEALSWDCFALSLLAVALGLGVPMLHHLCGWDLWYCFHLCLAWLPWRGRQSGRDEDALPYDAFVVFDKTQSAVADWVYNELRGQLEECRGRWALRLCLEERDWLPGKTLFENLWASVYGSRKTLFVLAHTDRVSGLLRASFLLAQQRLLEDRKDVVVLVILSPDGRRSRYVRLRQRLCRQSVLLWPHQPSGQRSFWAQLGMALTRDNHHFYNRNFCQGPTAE

As to `COc1cc(-c2[nH]c3cnc(N4CCN(CC5CC5)CC4)c(F)c3c2C(C)C)cn2ncnc12` [Example 390], the IC50 at human TLR8 (setting [1]) was found to be 0.15 nM; at human TLR7, 2.3 nM; at human TLR9 (setting [2]) it was 4060 nM.

Regarding `Cc1cc(-c2[nH]c3cnc(C4CCNCC4)c(F)c3c2C(C)C)cc(C)n1` [Example 151], the half-maximal inhibitory concentration (IC50) is 4.4 nM at human TLR8 (setting [1]), 1.1 nM against human TLR7 and 768 nM at human TLR9 (setting [2]).

As to `CCN(C)C1CCC(c2ncc3[nH]c(-c4cc(OC)c5ncnn5c4)c(C(C)C)c3c2F)CC1` (stereo not drawn) [Example 77], the IC50 at human TLR8 (setting [1]) is 4.5 nM; against human TLR7, 2.7 nM; at human TLR9 (setting [2]), 403 nM.

With `COc1cc(-c2[nH]c3cnc(C4CCC(NC(C)C)CC4)c(F)c3c2C(C)C)cn2ncnc12` (stereo not drawn) [Example 73], the IC50 is 0.77 nM on human TLR8 (setting [1]), 0.87 nM on human TLR7 and 2960 nM on human TLR9 (setting [2]).

Take `Cc1c(-c2[nH]c3cnc(N4CCN(C5CCC5)C[C@H]4C)c(F)c3c2C(C)C)cn2ncnc2c1C` [Example 458]: the IC50 at human TLR8 (setting [3]) stood at 1.2 nM; on human TLR7, 2.5 nM; on human TLR9 (setting [4]), 16800 nM.

Consider `CCN(C)C1CCC(c2ncc3[nH]c(-c4cc(OC)c5ncnn5c4)c(C(C)C)c3c2F)CC1` (stereo not drawn) [Example 228], for which the IC50 at human TLR8 (setting [3]) turned out to be 2.6 nM; on human TLR7, 1.5 nM; at human TLR9 (setting [4]), 812 nM.

Take `COc1cc(-c2[nH]c3cnc(N4CCN(CC5(C)COC5)CC4)c(F)c3c2C(C)C)cn2ncnc12` [Example 385]: the IC50 at human TLR8 (setting [1]) was 1.4 nM; against human TLR7, 4.1 nM; at human TLR9 (setting [2]), 42100 nM.

Consider `Cc1c(-c2[nH]c3cnc(N4CCN(C5CCOCC5)CC4)c(C)c3c2C(C)C)cn2ncnc2c1C` [Example 418], for which the IC50 at human TLR8 (setting [1]) came to 2.2 nM; against human TLR7, 19 nM; at human TLR9 (setting [2]), 6010 nM.

With `COc1cc(-c2[nH]c3cnc(N4CCN(CC(=O)N(C)C)CC4)c(F)c3c2C(C)C)cn2ncnc12` [Example 360], the concentration for half-maximal inhibition (IC50) came out at 1.5 nM on human TLR8 (setting [1]), 2.9 nM at human TLR7 and 23000 nM on human TLR9 (setting [2]).

With `CNCC(=O)N1CCC(c2ncc3[nH]c(-c4cc(OC)c5ncnn5c4)c(C(C)C)c3c2F)CC1` [Example 10], the results for the IC50 at human TLR8 (setting [1]), against human TLR7 and on human TLR9 (setting [2]) were 19 nM, 5.6 nM and 896 nM, respectively.

On to `COc1cc(-c2[nH]c3cnc(N4CCN(CCS(C)(=O)=O)CC4)c(Cl)c3c2C(C)C)cn2ncnc12` [Example 294], for which the IC50 on human TLR8 (setting [1]) was 4.7 nM; against human TLR7, 3 nM; on human TLR9 (setting [2]), 7630 nM.

By IC50 is commonly meant the concentration that gives 50% inhibition.

The values above are taken from patent US11912703B2, “6-azaindole compounds” (BRISTOL-MYERS SQUIBB COMPANY, priority 2017, dated 2024).
